Experimental data reported in article PMC4864240, “Biotype Characterization, Developmental Profiling, Insecticide Response and Binding Property of Bemisia tabaci Chemosensory Proteins: Role of CSP in Insect Defense” (PLoS ONE, 2016).
Like-named read-outs stand apart in the source and are kept apart here.

What was measured:
Test in all cases: biochemical
Assay type in all cases: binding
[1] = target: T1, BtabCSP2 (Bemisia tabaci, UniProt H6UKS9); settings: for IC50: displacement of 1-NPN
T1 sequence (H6UKS9 22-131): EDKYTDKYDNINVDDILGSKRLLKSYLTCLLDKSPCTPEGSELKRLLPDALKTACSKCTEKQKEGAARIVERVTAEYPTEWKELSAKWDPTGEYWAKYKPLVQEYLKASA
Protocol: (§1) Protein-ligand binding affinity was determined for the three recombinant proteins. Emission fluorescence spectra were recorded on a Jasco FP-6500 Series fluorescence spectrofluorometer. […] Fluorescence was measured using an exciting wavelength of 337 nm. Emission spectrum was recorded between 350 and 500 nm.

[2] = target: T2, BtabCSP1 (Bemisia tabaci, UniProt D6N3A3)
T2 sequence (D6N3A3 20-126): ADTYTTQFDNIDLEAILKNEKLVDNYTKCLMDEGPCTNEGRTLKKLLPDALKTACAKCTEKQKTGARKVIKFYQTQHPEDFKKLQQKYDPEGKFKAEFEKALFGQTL
Protocol: as §1

[3] = target: T3, BtabCSP3 (Bemisia tabaci, UniProt A0A097GUB5); settings: for IC50: displacement of 1-NPN
T3 sequence (A0A097GUB5 21-138): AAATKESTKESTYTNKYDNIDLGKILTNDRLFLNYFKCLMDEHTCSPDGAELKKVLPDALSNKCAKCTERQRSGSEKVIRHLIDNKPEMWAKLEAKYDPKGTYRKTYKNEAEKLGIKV
Protocol: as §1

[4] = u.d. = binding constant not calculated, IC50>100 μM, read-out: BtabCSP2 Ki (u.d.)
[5] = u.d. = binding constant not calculated, IC50>100 μM, read-out: BtabCSP1 Ki (u.d.)
[6] = u.d. = binding constant not calculated, IC50>100 μM, read-out: BtabCSP3 Ki (u.d.)
[7] = competitive binding vs 1-NPN, three replicates ± SD, read-out: BtabCSP1 Ki
[8] = displacement of 1-NPN, read-out: IC50, BtabCSP1
[9] = BtabCSP1 Ki, competitive binding vs 1-NPN, three replicates ± SD
[10] = competitive binding vs 1-NPN, three replicates ± SD, read-out: BtabCSP3 Ki
[11] = BtabCSP1 Ki (u.d.), u.d. = binding constant not calculated, IC50>100 μM

Compound	Ki [1, 4] [µM]	Ki [2, 5] [µM]	Ki [3, 6] [µM]	other results
CCCCCOC(C)=O [Amyl acetate]	> 100	> 100	> 100	–
COC(=O)c1ccccc1O [Methyl salicylate]	> 100	–	> 100	Ki [2, 7]: 60 ± 2.74 µM; IC50 [2, 8]: 14.6 to 95.1 µM
CC1=CC[C@@H](C(C)(C)O)CC1 [α-Terpineol]	> 100	> 100	> 100	IC50 [2, 8]: 14.6 to 95.1 µM
CCCCCCCO [1-Heptanol]	> 100	> 100	> 100	–
CC(=O)/C=C/C1=C(C)CCCC1(C)C [β-Ionone]	–	–	–	Ki [1]: > 100 µM; IC50 [2]: 14.6 to 95.1 µM; Ki [2, 9]: 32.1 ± 1.48 µM; Ki [3]: > 100 µM
CC1=CC=C(C(C)C)CC1 [α-Terpinene]	> 100	> 100	> 100	IC50 [2, 8]: 14.6 to 95.1 µM
CCC/C=C/COC(=O)CCC [(E)-2-Hexenyl butyrate]	> 100	> 100	> 100	–
C=CC(=C)CC/C=C(\C)CCC=C(C)C [E-β-Farnesene]	> 100	> 100	> 100	–
CCCCC=O [Valeraldehyde]	> 100	> 100	> 100	–
CCCCCC(C=O)=Cc1ccccc1 [α-Pentyl-cinnamaldehyde]	–	–	–	Ki ([1]; competitive binding vs 1-NPN, three replicates ± SD, listed as α-pentyl-cinnamaldehyde, read-out: BtabCSP2 Ki): 10.3 µM; Ki ([1]; competitive binding vs 1-NPN, three replicates ± SD, read-out: BtabCSP2 Ki): 10.3 ± 1.17 µM; IC50 [1]: 11.1 µM; Ki [2, 7]: 12.6 ± 1.3 µM; Ki ([3]; competitive binding vs 1-NPN, three replicates ± SD, listed as α-pentyl-cinnamaldehyde, read-out: BtabCSP3 Ki): 5.8 µM; Ki [3, 10]: 5.82 ± 0.31 µM; IC50 [3]: 6.5 µM
CCCCCCCCCCCCCC(C)=O [2-Pentadecanone]	> 100	> 100	> 100	–
CC(=O)c1ccc(C)cc1C [2, 4′-Dimethylacetophenone]	–	–	–	Ki [1]: > 100 µM; Ki [2, 11]: > 100 µM; Ki [3]: > 100 µM
CCC/C=C/C=O [Trans-2-hexenal]	> 100	> 100	> 100	–
CC1=CCC2C(C1)C2(C)C (stereo not shown) [3-Carene]	> 100	> 100	> 100	–
CCCC(O)CC (stereo not shown) [3-Hexanol]	> 100	> 100	> 100	–
CC/C=C\CCOC(C)=O [(Z)-3-Hexenyl acetate]	> 100	> 100	> 100	–
C=CC(C)=CCC=C(C)C [Ocimene]	> 100	> 100	> 100	–
CCC/C=C/CO [Trans-2-hexen-1-ol]	> 100	–	> 100	Ki [2, 7]: 46.1 ± 1.25 µM; IC50 [2, 8]: 14.6 to 95.1 µM
C=CC(C)(O)CC/C=C(\C)CCC=C(C)C (racemic) [(+/-)Nerolidol]	> 100	> 100	> 100	IC50 [2, 8]: 14.6 to 95.1 µM

Compound	Ki [1, 4] [µM]	Ki [2, 5] [µM]	Ki [3, 6] [µM]	other results
C=CC(=C)CCC=C(C)C [Myrcene]	> 100	> 100	> 100	IC50 [2, 8]: 14.6 to 95.1 µM
CCCCCCCCCCCCCCC [n-Pentadecane]	> 100	> 100	> 100	–
C=C(C)C1CC=C(C)[C@@H](O)C1 (single isomer, unassigned; (-)) [(-)-Carveol]	> 100	> 100	> 100	–
CCCCCCCCCCC [n-Undecane]	> 100	> 100	> 100	–
S(-)-Limonene	> 100	–	> 100	Ki [2, 7]: 82.2 ± 3.47 µM
CCCCCC=O [n-Hexaldehyde]	> 100	> 100	> 100	–
C=CC(C)(O)CCC=C(C)C (stereo not shown) [Linalool]	> 100	> 100	> 100	IC50 [2, 8]: 14.6 to 95.1 µM
CCCCC(CC)CO (stereo not shown) [2-Ethyl-hexanol]	> 100	> 100	> 100	–
C=CCc1ccc(O)c(OC)c1 [Eugenol]	> 100	> 100	> 100	–
O=Cc1ccccc1 [Benzaldehyde]	–	–	–	Ki [1]: > 100 µM; Ki [2, 11]: > 100 µM; Ki [3]: > 100 µM
CCCCCCC=O [Heptanal]	> 100	> 100	> 100	–
CCCCC/C=C\C/C=C\CCCCCCCC(=O)O [Linoleic acid]	> 100	–	–	IC50 [1]: > 100 µM; Ki [2, 7]: 5.78 ± 0.39 µM; IC50 [2, 8]: 6.7 ± 0.52 µM; Ki [3, 10]: 43.5 ± 2.86 µM; IC50 [3]: 48.5 ± 3.42 µM
CCCCCCCCC=O [Nonanal]	> 100	> 100	> 100	–
C=C1CCC2CC1C2(C)C (stereo not drawn) [β-Pinene]	> 100	> 100	> 100	–
CC12CCC(CC1)C(C)(C)O2 [1,8-Cineole]	> 100	> 100	> 100	–
CC(=O)CCC=C(C)C [6-Methyl-5-hepten-2-one]	–	–	–	Ki [1]: > 100 µM; IC50 [2]: 14.6 to 95.1 µM; Ki [2, 11]: > 100 µM; Ki [3]: > 100 µM
CCCCCCCC(=O)O [Octanoic acid]	> 100	> 100	> 100	IC50 [2, 8]: 14.6 to 95.1 µM
C=C(C)[C@H]1CC=C(C)CC1 [R(+)-Limonene]	> 100	–	> 100	Ki [2, 7]: 47.8 ± 1.56 µM
CCCCCCO [1-Hexanol]	> 100	–	> 100	Ki [2, 7]: 46.8 ± 1.37 µM; IC50 [2, 8]: 14.6 to 95.1 µM

Compound	Ki [1, 4] [µM]	Ki [2, 5] [µM]	Ki [3, 6] [µM]	other results
CCCCCCOC(C)=O [Hexyl acetate]	> 100	> 100	> 100	–
CCCCCC(C)=O [2-Heptanone]	> 100	–	> 100	Ki [2, 7]: 55.3 ± 4.21 µM; IC50 [2, 8]: 14.6 to 95.1 µM
CC(C)=CCC/C(C)=C/CO [Geraniol]	–	–	–	Ki [1]: > 100 µM; IC50 [2]: 14.6 to 95.1 µM; Ki [2, 9]: 39.6 ± 3.01 µM; Ki [3]: > 100 µM
CCCCCCCCCCCC=O [Dodecyl aldehyde]	> 100	> 100	> 100	–
CC(C)=CCC/C(C)=C/CC/C(C)=C/CO [Trans,trans-Farnesol]	> 100	> 100	> 100	–
CC1=CCC2CC1C2(C)C (stereo not drawn) [α-Pinene]	> 100	> 100	> 100	–
c1ccc(Nc2cccc3ccccc23)cc1 [1-NPN]	–	–	–	Kd ([1]; direct titration, Scatchard plot, read-out: binding constant of 1-NPN to CSP2): 20.8 µM; Kd ([2]; direct titration, Scatchard plot, read-out: binding constant of 1-NPN to CSP1): 11.7 µM; Kd ([3]; direct titration, Scatchard plot, read-out: binding constant of 1-NPN to CSP3): 15.3 µM
O=C(O)/C=C/c1ccccc1 [Cinnamic acid]	> 100	–	> 100	Ki [2, 7]: 75.5 ± 2.29 µM; IC50 [2, 8]: 14.6 to 95.1 µM
Cc1cccc(C)c1 [m-Xylene]	> 100	–	> 100	Ki [2, 7]: 55.5 ± 3.14 µM; IC50 [2, 8]: 14.6 to 95.1 µM
CCCCCCC [n-Heptane]	> 100	> 100	> 100	IC50 [2, 8]: 14.6 to 95.1 µM
CCCCCCCC=O [Octanal]	> 100	> 100	> 100	–
CCCCCCCCCC(=O)O [Decanoic acid]	–	–	–	Ki [1]: > 100 µM; IC50 [2]: 14.6 to 95.1 µM; Ki [2, 11]: > 100 µM; Ki [3]: > 100 µM
CCCCCCCCCCCC(=O)O [Lauric acid]	> 100	–	> 100	Ki [2, 7]: 35.2 ± 1.42 µM
CC/C=C\CCO [Z3-Hexen-1-ol]	> 100	> 100	> 100	–
C=C1CC/C=C(\C)CC[C@@H]2[C@@H]1CC2(C)C [Caryopyllene]	> 100	> 100	> 100	–
CCCCCC [n-Hexane]	–	–	–	Ki [1]: > 100 µM; Ki ([2]; BtabCSP1 Ki (u.d.)): > 100 µM; Ki [3]: > 100 µM
CC1(C)[C@H]2CC[C@]1(C)C(=O)C2 [(1S)-(-)-Camphor]	–	–	–	Ki [2, 7]: 50.8 ± 3.08 µM
CCCCCCCCCCCCC [n-Tridecane]	> 100	> 100	> 100	–
